Laboratory results: ChEMBL document CHEMBL1201862, “PubChem BioAssay data set” (2004)
Activity calls are given as the source filed them.

What was measured:
[1] = molecular target: Photoreceptor-specific nuclear receptor (Homo sapiens, UniProt Q9Y5X4); assay: NR2E3 inverse agonists, dose response, biochemical, TR-FRET (AID 463256); format: functional
[2] = molecular target: Peroxisome proliferator-activated receptor gamma/Nuclear receptor corepressor 2 (Homo sapiens, UniProt P37231+Q9Y618); assay: Counterscreen for NR2E3 inverse agonists: TR-FRET-based biochemical high throughput dose response assay to identify inverse agonists of the interaction between peroxisome proliferator-activated receptor gamma (PPARg) and nuclear receptor co-repressor 2 (NCOR2).; format: functional
Cytochrome P450 2C19 [3] = molecular target: T1, Cytochrome P450 2C19 (Homo sapiens, UniProt P33261); assay: Cytochrome panel assay with activity outcomes. Panel member name: p450-cyp2c19 Compounds with AC50 equal or less than 10 uM are considered active; format: functional; conditions: read-out: AC50
[4] = molecular target: Sphingosine 1-phosphate receptor 2 (Homo sapiens, UniProt O95136); assay: Dose Response Cell Based Assay for Agonists of the S1P2 Receptor. [Related pubchem assays: 729, 736, 843 ]; format: functional
Cytochrome P450 1A2 = molecular target: T2, Cytochrome P450 1A2 (Homo sapiens, UniProt P05177)
T2 sequence (P05177 whole entry): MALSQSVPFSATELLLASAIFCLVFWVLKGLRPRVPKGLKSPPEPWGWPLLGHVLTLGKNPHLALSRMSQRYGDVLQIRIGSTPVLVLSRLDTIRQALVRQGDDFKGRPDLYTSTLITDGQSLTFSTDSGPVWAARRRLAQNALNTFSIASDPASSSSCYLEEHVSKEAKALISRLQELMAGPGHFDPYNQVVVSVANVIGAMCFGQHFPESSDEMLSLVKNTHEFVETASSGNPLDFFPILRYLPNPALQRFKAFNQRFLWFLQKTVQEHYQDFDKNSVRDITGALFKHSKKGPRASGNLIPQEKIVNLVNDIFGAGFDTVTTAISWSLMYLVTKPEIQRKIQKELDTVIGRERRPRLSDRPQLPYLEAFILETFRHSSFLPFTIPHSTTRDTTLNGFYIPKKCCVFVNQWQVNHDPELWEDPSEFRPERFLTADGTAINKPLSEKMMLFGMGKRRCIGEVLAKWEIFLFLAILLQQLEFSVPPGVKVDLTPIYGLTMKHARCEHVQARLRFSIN

[5] = molecular target: Diphosphomevalonate decarboxylase (Streptococcus pneumoniae serotype 2 (strain D39 / NCTC 7466), UniProt Q9FD53); assay: S. pneumoniae DPM-DC inhibition retest, confirmation, biochemical, cuvette format, coupled NADH fluorescence (AID 1028); format: functional
[6] = molecular target: 5-hydroxytryptamine receptor 1A (Homo sapiens, UniProt P08908); format: functional
Cytochrome P450 2C19 [7] = molecular target: T1, Cytochrome P450 2C19; assay: qHTS Assay for Inhibitors and Substrates of Cytochrome P450 2C19. [Related pubchem assays: 410 ]; format: ADME; conditions: read-out: Potency
[8] = HepG2 cell cytotoxicity, dose response, cytotoxicity control for Shn3 inhibitor project, CellTiter-Glo, cherry-picked (AID 624134); format: functional, cell-based
Galanin receptor type 2 = Galanin receptor type 2 (Homo sapiens, UniProt O43603); assay: Dose Response cell-based high-throughput screening assay to identify antagonists of galanin receptor 2 (GALR2). [Related pubchem assays: 828, 866 ]; format: functional
INS1 = assay: beta cell apoptosis inhibitors, cytokine rescue, dose response, luminescence, retest (AID 449756); format: functional, cell-based; conditions: Rattus norvegicus;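 note: cell death triggered by IL-1 beta plus TNF-alpha plus IFN-gamma mixture; protective hits raise ATP signal compared with cytokine alone wells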
[9] = control 3'UTR Renilla luciferase suppression, dose response, counter-screen for Shn3 inhibitor project, cell-based, Clone20-Shn3RL, cherry-picked (AID 624133); format: functional
[10] = Shn3 3'UTR reporter inhibitors, dose response, cell-based, Clone20 osteoblasts, firefly luciferase, cherry-picked (AID 624132); format: functional;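 note: firefly luciferase luminescence from reporter carrying the Shn3 3'UTR in osteoblasts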
Cytochrome P450 2C9 = Cytochrome P450 2C9 (Homo sapiens, UniProt P11712)
Cytochrome P450 2D6 = Cytochrome P450 2D6 (Homo sapiens, UniProt P10635);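 note: CYP2D6 member of a cytochrome P450 panel assay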
[11] = molecular target: Protein-tyrosine kinase 2-beta (Homo sapiens, UniProt Q14289);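 note: potency of inhibitors of PYK2 kinase phosphorylation of poly-GT substrate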
[12] = molecular target: Mitogen-activated protein kinase 10 (Homo sapiens, UniProt P53779); assay: Dose response biochemical screening assay for inhibitors of c-Jun N-Terminal Kinase 3 (JNK3). [Related pubchem assays: 746 ]
[13] = molecular target: T3, Aryl hydrocarbon receptor (Homo sapiens, UniProt P35869); assay: Luminescence-based cell-based high throughput dose response assay for activators of the Aryl Hydrocarbon Receptor (AHR). [Related pubchem assays: 2796 (Primary screen (AHR activators in singlicate)), 2845 (Confirmation screen (AHR activators in triplicate)), 434939 (Counterscreen (PXR activators in triplicate)), 2804 (Summary (AHR activators))]; format: ADME
T3 sequence (P35869 whole entry): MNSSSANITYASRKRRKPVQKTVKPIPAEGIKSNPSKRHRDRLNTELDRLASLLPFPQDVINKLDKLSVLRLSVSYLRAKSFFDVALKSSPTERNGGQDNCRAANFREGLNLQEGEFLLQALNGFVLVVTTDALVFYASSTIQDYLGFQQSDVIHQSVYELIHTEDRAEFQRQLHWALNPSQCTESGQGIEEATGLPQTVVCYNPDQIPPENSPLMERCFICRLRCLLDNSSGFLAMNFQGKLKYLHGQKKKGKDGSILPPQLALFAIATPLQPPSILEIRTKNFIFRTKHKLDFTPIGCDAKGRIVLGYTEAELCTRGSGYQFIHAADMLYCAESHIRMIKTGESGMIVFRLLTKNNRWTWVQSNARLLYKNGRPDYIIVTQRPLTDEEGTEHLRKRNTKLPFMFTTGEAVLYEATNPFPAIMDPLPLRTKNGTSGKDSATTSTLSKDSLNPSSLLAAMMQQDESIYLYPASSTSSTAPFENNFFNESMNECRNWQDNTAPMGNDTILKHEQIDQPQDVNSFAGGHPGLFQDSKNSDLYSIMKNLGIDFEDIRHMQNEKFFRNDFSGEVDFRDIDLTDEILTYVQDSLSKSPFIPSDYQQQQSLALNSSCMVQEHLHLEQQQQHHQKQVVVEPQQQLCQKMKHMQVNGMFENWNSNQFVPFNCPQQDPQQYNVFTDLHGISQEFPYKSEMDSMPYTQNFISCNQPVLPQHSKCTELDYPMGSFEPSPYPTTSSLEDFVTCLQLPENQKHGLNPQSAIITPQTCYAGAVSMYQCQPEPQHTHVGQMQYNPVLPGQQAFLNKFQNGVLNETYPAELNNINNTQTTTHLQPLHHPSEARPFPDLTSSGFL

Aspartyl aminopeptidase = Aspartyl aminopeptidase (Plasmodium falciparum 3D7, UniProt Q8I2J3); assay: Counterscreen for inhibitors of M1 and M17 aminopeptidases: QFRET-based biochemical high throughput dose response assay for inhibitors of the Plasmodium falciparum M18 Aspartyl Aminopeptidase (PFM18AAP). [Related PubChem assays: 1619 (Screening assay (M17LAP inhibitors).), 1445 (Screening assay (M1AAP inhibitors).)]
Procathepsin L = Procathepsin L (Homo sapiens, UniProt P07711); assay: cathepsin L inhibitors, dose response, counter-screen for M1/M17 aminopeptidase inhibitor project, biochemical, QFRET, 1536-well (AID 2214)
Leucine aminopeptidase = molecular target: T4, Leucine aminopeptidase (Plasmodium falciparum 3D7, UniProt Q8IL11); assay: P. falciparum M17LAP inhibitors, primary screen, biochemical, fluorogenic H-Leu-NHMec substrate, 1536-well (AID 1619); format: functional
T4 sequence (Q8IL11 whole entry): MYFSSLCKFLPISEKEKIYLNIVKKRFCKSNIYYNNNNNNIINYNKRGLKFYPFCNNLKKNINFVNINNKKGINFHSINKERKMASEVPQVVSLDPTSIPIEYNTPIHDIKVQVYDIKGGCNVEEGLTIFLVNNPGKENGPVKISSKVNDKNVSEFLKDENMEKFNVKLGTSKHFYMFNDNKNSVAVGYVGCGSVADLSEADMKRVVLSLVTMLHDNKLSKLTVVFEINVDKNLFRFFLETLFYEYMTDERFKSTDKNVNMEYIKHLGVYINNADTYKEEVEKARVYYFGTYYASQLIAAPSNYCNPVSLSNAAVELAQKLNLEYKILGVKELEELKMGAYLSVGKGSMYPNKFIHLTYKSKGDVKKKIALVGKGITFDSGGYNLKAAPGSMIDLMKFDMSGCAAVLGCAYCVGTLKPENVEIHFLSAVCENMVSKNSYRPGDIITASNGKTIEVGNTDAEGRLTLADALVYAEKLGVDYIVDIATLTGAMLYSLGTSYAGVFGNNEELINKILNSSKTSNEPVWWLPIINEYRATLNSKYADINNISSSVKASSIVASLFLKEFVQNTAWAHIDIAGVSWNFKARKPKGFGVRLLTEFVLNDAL

Streptococcus = assay: Group A Streptococcus viability loss, dose response, counter-screen for streptokinase expression inhibitor project, luminescence, BacTiterGlo (AID 1915); format: functional, organism-based;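 note: potency for reduction of bacterial viability or growth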
[14] = cytotoxicity in HEK-293T cells, dose response, cytotoxicity control for TCR NF-kB inhibitor project, luminescence, T-cell screen hits (AID 489026); format: functional, cell-based;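 note: cells exposed to compound about 14 hours before the viability readout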
Streptokinase A = molecular target: T5, Streptokinase A (Streptococcus pyogenes serotype M1, UniProt P10520); assay: S. pyogenes streptokinase expression inhibitors, potency, dose response, plasminogen activation absorbance, OD405 (AID 1914); format: functional, Streptococcus pyogenes M1 GAS;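 note: secreted streptokinase activity via plasminogen activation per viability signal from cell pellet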
T5 sequence (P10520 whole entry): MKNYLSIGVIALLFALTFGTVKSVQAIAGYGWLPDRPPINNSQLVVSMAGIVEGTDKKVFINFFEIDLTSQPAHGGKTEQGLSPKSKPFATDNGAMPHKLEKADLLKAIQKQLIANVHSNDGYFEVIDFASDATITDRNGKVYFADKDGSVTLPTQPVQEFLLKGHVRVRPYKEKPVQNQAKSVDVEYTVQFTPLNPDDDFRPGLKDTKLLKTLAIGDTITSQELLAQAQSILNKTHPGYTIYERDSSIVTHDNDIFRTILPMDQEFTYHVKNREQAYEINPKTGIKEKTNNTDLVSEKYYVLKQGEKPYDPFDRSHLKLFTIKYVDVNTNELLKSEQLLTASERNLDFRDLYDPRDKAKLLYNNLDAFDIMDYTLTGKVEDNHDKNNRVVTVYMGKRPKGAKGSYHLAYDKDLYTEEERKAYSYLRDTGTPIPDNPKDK

[15] = molecular target: T6, Tyrosine-protein phosphatase non-receptor type 7 (Homo sapiens, UniProt P35236); assay: inhibitors of human HePTP phosphatase, […], biochemical, absorbance, leukemia target (AID 521); format: functional
T6 sequence (P35236 whole entry): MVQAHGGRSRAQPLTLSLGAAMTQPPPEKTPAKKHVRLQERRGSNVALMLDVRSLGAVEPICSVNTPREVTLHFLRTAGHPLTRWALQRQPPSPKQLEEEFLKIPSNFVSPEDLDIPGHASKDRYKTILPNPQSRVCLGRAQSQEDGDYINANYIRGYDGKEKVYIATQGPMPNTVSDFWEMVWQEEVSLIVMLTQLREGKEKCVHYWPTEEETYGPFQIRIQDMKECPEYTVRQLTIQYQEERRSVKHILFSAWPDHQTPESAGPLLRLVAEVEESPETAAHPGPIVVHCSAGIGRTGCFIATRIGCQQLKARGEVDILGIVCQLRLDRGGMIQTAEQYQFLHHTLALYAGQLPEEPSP

14-3-3 protein gamma = 14-3-3 protein gamma (Homo sapiens, UniProt P61981); assay: modulators of 14-3-3 gamma client binding – dose response (AID 711); format: functional
[16] = molecular target: T7, Dual specificity protein phosphatase 6 (Rattus norvegicus, UniProt Q64346); assay: MKP-3 phosphatase inhibitors, primary screen, biochemical, rat enzyme, in vitro (AID 425)
T7 sequence (Q64346 whole entry): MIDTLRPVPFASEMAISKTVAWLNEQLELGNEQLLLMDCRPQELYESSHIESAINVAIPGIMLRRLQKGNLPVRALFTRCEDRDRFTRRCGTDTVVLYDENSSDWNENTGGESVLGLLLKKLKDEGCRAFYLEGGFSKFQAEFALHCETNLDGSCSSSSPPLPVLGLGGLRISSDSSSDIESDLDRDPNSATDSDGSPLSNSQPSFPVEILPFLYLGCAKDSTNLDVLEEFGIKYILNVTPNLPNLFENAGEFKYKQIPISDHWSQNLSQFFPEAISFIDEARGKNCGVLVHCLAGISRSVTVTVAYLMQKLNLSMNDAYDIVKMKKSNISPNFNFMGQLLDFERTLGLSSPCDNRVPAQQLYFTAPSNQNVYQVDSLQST

Heat shock protein HSP90 = Heat shock protein HSP90 (Homo sapiens, UniProt P07900+P08238); assay: tumor Hsp90 inhibitor potency, dose response (AID 712); format: functional

T1 sequence (P33261 whole entry): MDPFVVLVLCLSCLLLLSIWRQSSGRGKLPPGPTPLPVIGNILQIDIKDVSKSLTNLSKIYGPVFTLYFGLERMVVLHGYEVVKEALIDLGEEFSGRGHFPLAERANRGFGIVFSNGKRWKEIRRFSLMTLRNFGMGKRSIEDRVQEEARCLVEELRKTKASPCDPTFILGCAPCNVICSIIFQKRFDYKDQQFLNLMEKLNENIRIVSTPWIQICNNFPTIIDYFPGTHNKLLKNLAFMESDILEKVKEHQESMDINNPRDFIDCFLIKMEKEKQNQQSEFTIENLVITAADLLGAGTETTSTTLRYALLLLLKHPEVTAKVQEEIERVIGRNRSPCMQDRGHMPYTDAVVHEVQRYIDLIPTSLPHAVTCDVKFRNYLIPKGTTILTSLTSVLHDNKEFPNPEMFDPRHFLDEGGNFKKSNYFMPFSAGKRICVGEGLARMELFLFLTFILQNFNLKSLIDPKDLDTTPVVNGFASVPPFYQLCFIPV
Cytochrome P450 2D6, sequence (P10635 whole entry): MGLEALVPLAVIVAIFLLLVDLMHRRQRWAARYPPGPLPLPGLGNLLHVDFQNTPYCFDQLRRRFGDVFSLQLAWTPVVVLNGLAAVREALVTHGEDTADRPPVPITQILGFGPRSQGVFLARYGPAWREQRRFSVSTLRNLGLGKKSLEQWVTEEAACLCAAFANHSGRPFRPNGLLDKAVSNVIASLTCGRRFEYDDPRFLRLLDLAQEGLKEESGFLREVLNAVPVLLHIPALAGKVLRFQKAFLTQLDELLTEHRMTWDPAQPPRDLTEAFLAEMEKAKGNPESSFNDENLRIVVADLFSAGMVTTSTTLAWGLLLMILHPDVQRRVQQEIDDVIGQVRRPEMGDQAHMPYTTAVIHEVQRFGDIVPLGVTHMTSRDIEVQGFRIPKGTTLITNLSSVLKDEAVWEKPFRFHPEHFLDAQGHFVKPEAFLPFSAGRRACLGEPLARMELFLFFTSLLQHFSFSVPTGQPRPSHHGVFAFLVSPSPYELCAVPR
Mitogen-activated protein kinase 10, sequence (P53779 whole entry): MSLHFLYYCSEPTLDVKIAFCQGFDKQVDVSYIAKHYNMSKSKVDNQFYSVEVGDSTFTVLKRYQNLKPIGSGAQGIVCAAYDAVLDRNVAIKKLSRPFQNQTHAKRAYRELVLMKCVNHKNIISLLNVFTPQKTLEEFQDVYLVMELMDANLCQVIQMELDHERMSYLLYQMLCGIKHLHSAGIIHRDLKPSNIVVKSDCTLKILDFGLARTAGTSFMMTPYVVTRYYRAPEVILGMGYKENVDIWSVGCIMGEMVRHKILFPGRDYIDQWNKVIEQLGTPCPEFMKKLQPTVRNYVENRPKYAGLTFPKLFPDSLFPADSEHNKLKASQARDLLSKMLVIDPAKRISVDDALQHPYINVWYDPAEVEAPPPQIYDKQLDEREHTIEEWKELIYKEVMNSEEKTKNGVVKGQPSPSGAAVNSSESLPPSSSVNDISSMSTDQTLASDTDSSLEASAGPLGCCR
Galanin receptor type 2, sequence (O43603 whole entry): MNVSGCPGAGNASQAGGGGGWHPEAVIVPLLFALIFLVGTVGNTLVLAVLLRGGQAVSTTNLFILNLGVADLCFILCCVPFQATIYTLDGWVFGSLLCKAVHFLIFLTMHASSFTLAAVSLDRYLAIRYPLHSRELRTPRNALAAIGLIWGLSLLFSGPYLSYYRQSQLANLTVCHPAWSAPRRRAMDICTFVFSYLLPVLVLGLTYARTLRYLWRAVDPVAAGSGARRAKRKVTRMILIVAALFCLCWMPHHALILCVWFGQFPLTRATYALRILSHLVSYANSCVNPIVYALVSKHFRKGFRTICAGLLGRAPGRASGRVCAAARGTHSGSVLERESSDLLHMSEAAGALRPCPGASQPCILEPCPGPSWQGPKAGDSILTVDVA
Cytochrome P450 2C9, sequence (P11712 whole entry): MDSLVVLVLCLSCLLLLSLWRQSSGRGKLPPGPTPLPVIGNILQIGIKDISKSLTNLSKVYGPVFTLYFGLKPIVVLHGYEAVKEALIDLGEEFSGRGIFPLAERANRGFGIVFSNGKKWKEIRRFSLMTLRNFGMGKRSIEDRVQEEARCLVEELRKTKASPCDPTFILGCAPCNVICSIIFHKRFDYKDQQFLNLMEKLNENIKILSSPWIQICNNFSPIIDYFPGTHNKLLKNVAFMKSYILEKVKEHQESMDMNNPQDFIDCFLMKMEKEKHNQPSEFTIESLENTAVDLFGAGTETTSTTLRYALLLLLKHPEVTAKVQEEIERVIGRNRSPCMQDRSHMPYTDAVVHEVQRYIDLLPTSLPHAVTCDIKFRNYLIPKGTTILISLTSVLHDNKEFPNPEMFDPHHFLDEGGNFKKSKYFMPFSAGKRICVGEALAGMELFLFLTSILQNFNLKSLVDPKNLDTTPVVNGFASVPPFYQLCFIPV
Aspartyl aminopeptidase, sequence (Q8I2J3 whole entry): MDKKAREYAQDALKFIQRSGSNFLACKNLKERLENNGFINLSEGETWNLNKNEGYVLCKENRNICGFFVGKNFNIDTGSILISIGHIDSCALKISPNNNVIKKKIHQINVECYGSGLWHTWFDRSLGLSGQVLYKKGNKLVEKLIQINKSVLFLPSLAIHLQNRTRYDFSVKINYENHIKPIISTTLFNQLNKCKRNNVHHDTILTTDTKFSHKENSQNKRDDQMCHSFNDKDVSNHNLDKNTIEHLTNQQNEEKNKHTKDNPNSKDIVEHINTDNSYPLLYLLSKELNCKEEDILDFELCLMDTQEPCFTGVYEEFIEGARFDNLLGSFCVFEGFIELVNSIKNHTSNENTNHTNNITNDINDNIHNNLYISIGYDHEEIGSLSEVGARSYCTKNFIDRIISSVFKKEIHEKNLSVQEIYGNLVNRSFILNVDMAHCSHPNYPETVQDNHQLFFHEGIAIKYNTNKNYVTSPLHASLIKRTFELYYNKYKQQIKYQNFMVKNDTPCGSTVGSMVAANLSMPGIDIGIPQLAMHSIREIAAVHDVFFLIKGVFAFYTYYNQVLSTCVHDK
5-hydroxytryptamine receptor 1A, sequence (P08908 whole entry): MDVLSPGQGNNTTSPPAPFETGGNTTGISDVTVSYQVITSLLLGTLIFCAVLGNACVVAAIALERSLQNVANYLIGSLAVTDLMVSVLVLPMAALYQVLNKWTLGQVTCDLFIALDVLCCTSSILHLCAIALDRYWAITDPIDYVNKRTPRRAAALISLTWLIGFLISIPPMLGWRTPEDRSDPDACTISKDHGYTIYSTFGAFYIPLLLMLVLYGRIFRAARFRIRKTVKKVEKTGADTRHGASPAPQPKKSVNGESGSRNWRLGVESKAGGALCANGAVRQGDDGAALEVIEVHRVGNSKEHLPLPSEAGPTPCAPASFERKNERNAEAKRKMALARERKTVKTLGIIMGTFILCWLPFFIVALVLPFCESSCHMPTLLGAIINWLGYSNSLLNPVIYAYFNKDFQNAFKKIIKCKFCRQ
Procathepsin L, sequence (P07711 whole entry): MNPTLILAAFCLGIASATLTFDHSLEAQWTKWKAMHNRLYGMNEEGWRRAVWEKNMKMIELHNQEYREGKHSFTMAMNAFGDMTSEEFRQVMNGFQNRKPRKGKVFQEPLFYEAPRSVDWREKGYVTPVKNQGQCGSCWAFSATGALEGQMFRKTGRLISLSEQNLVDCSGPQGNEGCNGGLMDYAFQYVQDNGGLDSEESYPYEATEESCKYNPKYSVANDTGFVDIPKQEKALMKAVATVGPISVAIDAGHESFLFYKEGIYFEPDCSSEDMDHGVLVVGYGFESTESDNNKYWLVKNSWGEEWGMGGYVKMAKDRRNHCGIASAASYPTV
Protein-tyrosine kinase 2-beta, sequence (Q14289 whole entry): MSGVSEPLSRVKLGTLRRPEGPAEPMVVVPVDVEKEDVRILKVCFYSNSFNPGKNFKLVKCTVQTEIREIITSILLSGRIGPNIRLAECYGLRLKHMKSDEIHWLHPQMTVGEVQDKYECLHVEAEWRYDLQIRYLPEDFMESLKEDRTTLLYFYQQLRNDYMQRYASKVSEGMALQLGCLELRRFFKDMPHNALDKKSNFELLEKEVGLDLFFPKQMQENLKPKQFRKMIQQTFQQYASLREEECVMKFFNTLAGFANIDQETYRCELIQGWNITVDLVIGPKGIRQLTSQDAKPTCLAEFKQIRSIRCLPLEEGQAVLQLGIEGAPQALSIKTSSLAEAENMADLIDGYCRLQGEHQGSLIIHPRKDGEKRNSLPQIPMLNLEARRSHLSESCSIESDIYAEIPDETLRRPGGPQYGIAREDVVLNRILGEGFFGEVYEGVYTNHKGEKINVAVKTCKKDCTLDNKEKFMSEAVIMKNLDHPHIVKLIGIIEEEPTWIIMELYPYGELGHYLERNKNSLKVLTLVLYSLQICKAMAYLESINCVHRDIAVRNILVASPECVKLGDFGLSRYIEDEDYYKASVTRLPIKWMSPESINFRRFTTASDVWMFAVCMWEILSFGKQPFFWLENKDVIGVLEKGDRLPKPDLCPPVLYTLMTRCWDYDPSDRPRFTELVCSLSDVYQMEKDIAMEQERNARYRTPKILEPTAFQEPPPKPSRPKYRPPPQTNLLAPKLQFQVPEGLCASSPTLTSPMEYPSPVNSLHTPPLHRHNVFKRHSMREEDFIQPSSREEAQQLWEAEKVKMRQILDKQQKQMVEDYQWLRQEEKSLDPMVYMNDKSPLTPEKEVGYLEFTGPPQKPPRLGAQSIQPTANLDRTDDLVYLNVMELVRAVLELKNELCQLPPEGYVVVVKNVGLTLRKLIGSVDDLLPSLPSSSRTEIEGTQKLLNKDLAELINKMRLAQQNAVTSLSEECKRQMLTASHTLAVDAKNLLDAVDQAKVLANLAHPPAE
14-3-3 protein gamma, sequence (P61981 whole entry): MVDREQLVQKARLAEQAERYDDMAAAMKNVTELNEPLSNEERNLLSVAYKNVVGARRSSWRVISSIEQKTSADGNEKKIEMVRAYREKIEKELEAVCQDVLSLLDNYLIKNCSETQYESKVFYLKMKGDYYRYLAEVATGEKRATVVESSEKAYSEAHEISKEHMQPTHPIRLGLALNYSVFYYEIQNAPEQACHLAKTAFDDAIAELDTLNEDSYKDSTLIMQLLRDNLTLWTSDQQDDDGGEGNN

COc1ccc(-n2nc(C(=O)NCC(=O)NCc3ccc(F)cc3)c3ccccc3c2=O)cc1OC
IC50 [1]: 1.46 µM (active) | IC50 [2]: 0.941 µM (active)

O=c1c(-c2nc3ccccc3s2)cccn1Cc1ccc(Cl)cc1
AC50 (Cytochrome P450 2C19 [3]): 1.12 µM (inconclusive) | EC50 [4]: 2.89 µM (active) | AC50 (Cytochrome P450 1A2): 1.41 µM (inconclusive)

O=C(NC1CC1)c1ccc(-n2sc3ccccc3c2=O)cc1
IC50 [5]: 11.4 µM (active)

O=S(=O)(c1cccc(Cl)c1)N1CCCC1
EC50 [6]: > 50 µM (not active)

COC(=O)C(C(C)=O)C(NC(=O)NCc1ccccc1)c1ccccc1 (centres undefined)
AC50 (Cytochrome P450 2C19 [7]): 1.26 µM (inconclusive)

Cc1cccc(C(=O)Nc2ccc(C(=O)/C=C/c3cccnc3)cc2)c1
AC50 [8]: 30.9 µM (active) | IC50 (Galanin receptor type 2): 21.4 µM (not active) | AC50 (INS1): 5.53 µM (active) | AC50 [9]: 10.7 µM (active) | AC50 [10]: 6.23 µM (active)

O=C(NCCc1c[nH]c2ccccc12)C1CCN(c2nnc(N3CCCC3=O)s2)CC1
AC50 (Cytochrome P450 2C19 [3]): 7.94 µM (inconclusive) | AC50 (Cytochrome P450 2C9): 10 µM (inconclusive) | AC50 (Cytochrome P450 2D6): 10 µM (inconclusive) | IC50 [11]: 22.7 µM (not active)

NC(=O)c1oc2ccccc2c1NC(=O)c1ccc(F)cc1
IC50 [12]: 23.9 µM (not active) | EC50 [13]: 4.12 µM (active)

Cc1c(O)n(-c2ccccc2)c(SCC(=O)Nc2ccc3c4c(cccc24)CC3)nc1=O
IC50 (Aspartyl aminopeptidase): > 73.5 µM (not active) | IC50 (Procathepsin L): > 59.6 µM (not active) | IC50 (Leucine aminopeptidase): 5.11 µM (active)

COc1cccc2sc(Nc3nnc(-c4ccccc4Cl)o3)nc12
EC50 (Streptococcus): > 150 µM (inconclusive) | IC50 [14]: 61.1 µM (inactive) | EC50 (Streptokinase A): > 150 µM (not active) | IC50 [15]: > 100 µM (not active)

Cc1nc2nc(Cc3ccccc3)nn2c(O)c1Cc1ccccc1
IC50 (14-3-3 protein gamma): > 50 µM (not active)

CCn1nc(-c2cccs2)nc2c(=O)n(C)c(=O)nc1-2
IC50 [16]: 1.98 µM (active) | IC50 (Heat shock protein HSP90): 5 µM
